From patent US12311044B2, “Antimicrobial composition” (priority 2018, dated 2025)

Tested on: total salivary bacterial pool (mixed oral bacteria)
Experiment: Malodour assay using lead acetate paper (H2S production by pooled salivary bacteria)
Format: cell-based
Design: concentration or dose not given beside the values
Conditions: pooled human saliva bacteria OD 0.4, 96 well plate, incubated overnight, ΔE of lead acetate paper; actives at the weight % of the composition
Procedure: Malodour Assay Using Lead Acetate Paper:
The following tests were done to find out the efficacy of different compositions inside and outside the scope of the present invention:
The early morning saliva from different volunteer (5 samples) were pooled and centrifuged (Eppendorf refrigerated centrifuge 5810R at 6300 rcf/11.5 G) for 10 minutes. After that, the Supernatant which is saliva and the pellet—mixed bacterial pool (oral bacteria e.g. Streptococcus. mitis, Streptococcus. mutans, Nisseria. flava, Rothia. dentocariosa etc.,) was separated. The saliva was then filter sterilized by passing through the 50 mL conical 0.2 μm PES sterile filter (VWR lab products limited). The OD of total salivary bacterial pool culture was adjusted to 0.4 by spectrophotometer (Shimadzu UV Spectrophotometer—UV-1800) for higher pool of bacteria which is required for the assay. The assay was set up in a 96 well plate with respective culture control and DMSO control. The total reaction volume was 200 μL/well which comprises of the following: 45 μl 0.1% L-cysteine-HCl (Sigma, C1276)+TSB (Bacto, 211825, 30 g/L)+50 μL sterile Saliva+75 μL Culture+30 μL active (as per the weight % disclosed in the following table 2)+sterile distilled water.
Then the actives at desired concentration were added and the remaining volume was adjusted with sterile distilled water. After that, the wells were mixed well, and lead acetate filter was placed above the wells to capture the H2S released by the bacteria. […] The intensity of the spots was measured using a LAB reader (Minolta spectrophotometer CM 2600D). The colour reading was expressed in LAB, L* defines lightness, A* denotes the red/green value and B* the yellow/blue value. Then ΔL, ΔA and ΔB is calculated using this formula ΔL=L control−L sample, ΔA=L control−L sample, AB=L control−L sample. The total colour difference which is expressed as ΔE is calculated using this formula ΔE=√{square root over (((ΔL)^2+(ΔA)^2+(ΔB)^2))}. […] The total fold change of H2S inhibition over the control was calculated for the individual actives.

SMILES | Fold Change (total fold change of H2S inhibition over the control)
C=CCc1ccc(O)c(-c2ccc(O)c(CC=C)c2)c1 [B, honokiol] | 1.6 ± 1.8
CC(O)CN(CCN(CC(C)O)CC(C)O)CC(C)O (stereo not drawn) [Example A, tetrahydroxypropyl ethylenediamine] | 0.9±0.3
C=CCc1ccc(O)c(-c2ccc(O)c(CC=C)c2)c1 [C, honokiol] | 1.5 ± 1.8
